Experimental data published in the SangsterLogP compilation.

SMILES | logP
CN1CC=C(c2ccc(N)cc2)CC1 | 1.48
CN1CC=C(c2cccc(N)c2)CC1 | 1.47
CN1CC=C(c2ccc(Cl)cc2)CC1 | 3.32
CCN1CC=C(c2ccccc2)CC1 | 3.18
C1=C(c2ccccc2)CCNC1 | 1.99
Fc1ccc(C2=CCNCC2)cc1 | 2.37
Cc1ccccc1C1=CCN(C)CC1 | 3.1
CN1CC=C(c2ccncc2)CC1 | 1.25
CN1CC=C(c2cccs2)CC1 | 2.51
OCCN1CC=C(c2ccccc2)CC1 | 2
CC1=C(c2ccccc2)CCN(C)C1 | 3.18
C1=C(c2ccccc2)CCN(CCc2ccccc2)C1 | 3.98
